Results published in patent EP0341019A2, “Polyether antibiotic” (priority 1988, dated 1989).
Values after ≈ are worked out from the molar mass of the structure shown.

Columns and labels:
[1] = test system: Staphylococcus aureus V41; assay type: cell-based; conditions: V41, 24 h
[2] = test system: Staphylococcus epidermidis 222; assay type: cell-based; conditions: Staphylococcus epidermidis, 222, 24 h
[3] = test system: Streptococcus pyogenes C203; assay type: cell-based; conditions: C203, 24 h
[4] = test system: Haemophilus influenzae 76; assay type: cell-based; conditions: Haemophilus influenzae, 76, 24 h
Escherichia coli EC14 = assay type: cell-based; conditions: EC14, 24 h
Escherichia coli TEM = assay type: cell-based; conditions: 24 h
[5] = test system: Enterobacter aerogenes C32; assay type: cell-based; conditions: Klebsiella aerogenes, C32, 24 h
[6] = test system: Enterobacter aerogenes EB17; assay type: cell-based; conditions: Klebsiella aerogenes, EB17, 24 h
Klebsiella sp. = assay type: cell-based; conditions: 24 h
[7] = test system: Pseudomonas aeruginosa X239; assay type: cell-based; conditions: X239, 24 h
[8] = test system: Pseudomonas aeruginosa PS18; assay type: cell-based; conditions: PS18, 24 h
[9] = test system: Pseudomonas aeruginosa PS72; assay type: cell-based; conditions: PS72, 24 h
[10] = test system: Clostridium perfringens 81; experiment: microbe, parasite or virus in culture; assay type: cell-based; conditions: Clostridium perfringens, 81, 24 h
Peptococcus prevoti 1281 = assay type: cell-based; conditions: 24 h
[11] = test system: Peptostreptococcus intermedius 1624; assay type: cell-based; conditions: Peptostreptococcus, 1624, 24 h
[12] = test system: Bacteroides thetaiotaomicron 1438; assay type: cell-based; conditions: 24 h
[13] = test system: Bacteroides vulgatis 1211; assay type: cell-based; conditions: Bacteroides, 1211, 24 h
[14] = test system: Bacteroides corrodens 1874; assay type: cell-based; conditions: Eikenella corrodens, 1874, 24 h
[15] = test system: Fusobacterium necrophorum 6054A; assay type: cell-based; conditions: 24 h
[16] = test system: Herpes simplex viruses (HSV II); experiment: antiviral tissue-culture test; assay type: cell-based, Herpes simplex virus
[17] = test system: Great Lakes influenza virus; assay type: cell-based; conditions: tissue culture
Brazil influenza virus = assay type: cell-based; conditions: tissue culture
adult stablefly = experiment: insecticide test
Excerpt: (§1) The A82810 compounds are also useful as insecticides. For example, A82810 is active against southern armyworm, spider mite and blowfly larvae at levels as low as 100 ppm and against adult stablefly at levels as low as 50 ppm.

blowfly larvae = experiment: insecticide test
Excerpt: as §1

southern armyworm = experiment: insecticide test
Excerpt: as §1

spider mite = experiment: insecticide test
Excerpt: as §1

[18] = test system: Eimeria acervulina Strain 59 And E. tenella Strain 155; experiment: anticoccidial feed test in infected chickens, ionophore-sensitive strains; assay type: in vivo
[19] = test system: Eimeria acervulina Strain FS-316 And E. tenella Strain FS-456; experiment: anticoccidial feed test in infected chickens, ionophore-resistant strains; assay type: in vivo
E. maxima Strain LIT-626 = experiment: anticoccidial feed test in infected chickens, ionophore-resistant strain; assay type: in vivo
[20] = test system: Eimeria maxima Strain FS-410; experiment: as above; assay type: in vivo
[21] = test system: Eimeria acervulina H & C and Eimeria tenella Wis; experiment: anticoccidial feed test in infected chickens, ionophore-sensitive strains; assay type: in vivo

CC[C@@H](O)[C@]1(C)C[C@H](C)[C@@](O)([C@H]2C[C@H](C)[C@H]([C@]3(C)C[C@@H](O[C@H]4CC[C@H](OC)[C@@H](C)O4)[C@H]([C@]4(C)CC[C@@]5(O[C@H]([C@@H](C)[C@@H](OC)[C@H](C)C(=O)O)[C@H](C)[C@@H](OC)[C@H]5C)O4)O3)O2)O1 [Example A82810]
MIC [1]: 1 µg/mL (≈ 1.19 µM) | MIC [2]: 0.5 µg/mL (≈ 0.593 µM) | MIC [3]: 1 µg/mL (≈ 1.19 µM) | MIC [4]: 64 µg/mL (≈ 75.9 µM) | MIC (Escherichia coli EC14): 8 µg/mL (≈ 9.49 µM) | MIC (Escherichia coli TEM): > 128 µg/mL | MIC [5]: 8 µg/mL (≈ 9.49 µM) | MIC [6]: 8 µg/mL (≈ 9.49 µM) | MIC (Klebsiella sp.): > 128 µg/mL | MIC [7]: 0.25 µg/mL (≈ 0.297 µM) | MIC [8]: > 128 µg/mL | MIC [9]: 0.25 µg/mL (≈ 0.297 µM) | MIC [10]: 0.5 µg/mL (≈ 0.593 µM) | MIC (Peptococcus prevoti 1281): ≤ 0.25 µg/mL | MIC [11]: ≤ 0.25 µg/mL | MIC [12]: 8 µg/mL (≈ 9.49 µM) | MIC [13]: 4 µg/mL (≈ 4.74 µM) | MIC [14]: 8 µg/mL (≈ 9.49 µM) | MIC [15]: ≤ 0.25 µg/mL | active at levels as low as [16]: 1.56 µg/mL | active at a level of [17]: 250 µg/mL | active at a level of (Brazil influenza virus): 250 µg/mL | active at levels as low as (adult stablefly): 50 ppm | active at levels as low as (blowfly larvae): 100 ppm | active at levels as low as (southern armyworm): 100 ppm | active at levels as low as (spider mite): 100 ppm | TOTAL LESION SCORE ([18]; 0.5 ppm): 12.1 | WEIGHT GAIN, PERCENT OF CONTROL ([18]; 0.5 ppm): 60% OF CONTROL | TOTAL LESION SCORE ([18]; 1 ppm): 10.7 | WEIGHT GAIN, PERCENT OF CONTROL ([18]; 1 ppm): 81% OF CONTROL | AVERAGE CECAL LESION SCORES ([18]; 1.25 ppm): 3.2 | AVERAGE INTESTINAL LESION SCORES ([18]; 1.25 ppm): 6.0 | WEIGHT GAIN, PERCENT OF CONTROL ([18]; 1.25 ppm): 87% OF CONTROL | AVERAGE CECAL LESION SCORES ([18]; 1.5 ppm): 2.6 | AVERAGE INTESTINAL LESION SCORES ([18]; 1.5 ppm): 3.6 | AVERAGE CECAL LESION SCORES ([18]; 1.75 ppm): 2.0 | AVERAGE INTESTINAL LESION SCORES ([18]; 1.75 ppm): 2.3 | WEIGHT GAIN, PERCENT OF CONTROL ([18]; 1.75 ppm): 82% OF CONTROL | TOTAL LESION SCORE ([19]; 0.5 ppm): 8.7 | WEIGHT GAIN, PERCENT OF CONTROL ([19]; 0.5 ppm): 87% OF CONTROL | TOTAL LESION SCORE ([19]; 1 ppm): 9.3 | WEIGHT GAIN, PERCENT OF CONTROL ([19]; 1 ppm): 89% OF CONTROL | TOTAL LESION SCORE ([19]; 1.5 ppm): 7.7 | WEIGHT GAIN, PERCENT OF CONTROL ([19]; 1.5 ppm): 95% OF CONTROL | TOTAL LESION SCORE ([19]; 2 ppm): 9.6 | WEIGHT GAIN, PERCENT OF CONTROL ([19]; 2 ppm): 93% OF CONTROL | AVERAGE CECAL LESION SCORES ([19]; 2.5 ppm): 3.2 | AVERAGE INTESTINAL LESION SCORES ([19]; 2.5 ppm): 2.3 | WEIGHT GAIN, PERCENT OF CONTROL ([19]; 2.5 ppm): 81% OF CONTROL | AVERAGE CECAL LESION SCORES ([19]; 3 ppm): 2.9 | AVERAGE INTESTINAL LESION SCORES ([19]; 3 ppm): 3.3 | WEIGHT GAIN, PERCENT OF CONTROL ([19]; 3 ppm): 77% OF CONTROL | AVERAGE CECAL LESION SCORES ([19]; 3.5 ppm): 3.2 | AVERAGE INTESTINAL LESION SCORES ([19]; 3.5 ppm): 3.0 | WEIGHT GAIN, PERCENT OF CONTROL ([19]; 3.5 ppm): 85% OF CONTROL | AVERAGE CECAL LESION SCORES ([19]; 5 ppm): 2.3 | AVERAGE INTESTINAL LESION SCORES ([19]; 5 ppm): 1.3 | WEIGHT GAIN, PERCENT OF CONTROL ([19]; 5 ppm): 95% OF CONTROL | AVERAGE CECAL LESION SCORES ([19]; 6 ppm): 3.2 | AVERAGE INTESTINAL LESION SCORES ([19]; 6 ppm): 1.7 | WEIGHT GAIN, PERCENT OF CONTROL ([19]; 6 ppm): 98% OF CONTROL | AVERAGE INTESTINAL LESION SCORES (E. maxima Strain LIT-626; 1.25 ppm): 3.7 | WEIGHT GAIN, PERCENT OF CONTROL (E. maxima Strain LIT-626; 1.25 ppm): 99% OF CONTROL | AVERAGE INTESTINAL LESION SCORES (E. maxima Strain LIT-626; 1.5 ppm): 3.3 | WEIGHT GAIN, PERCENT OF CONTROL (E. maxima Strain LIT-626; 1.5 ppm): 102% OF CONTROL | AVERAGE INTESTINAL LESION SCORES (E. maxima Strain LIT-626; 1.75 ppm): 4.0 | WEIGHT GAIN, PERCENT OF CONTROL (E. maxima Strain LIT-626; 1.75 ppm): 101% OF CONTROL | AVERAGE INTESTINAL LESION SCORES (E. maxima Strain LIT-626; 2 ppm): 3.3 | WEIGHT GAIN, PERCENT OF CONTROL (E. maxima Strain LIT-626; 2 ppm): 94% OF CONTROL | AVERAGE INTESTINAL LESION SCORES ([20]; 1.25 ppm): 4.0 | WEIGHT GAIN, PERCENT OF CONTROL ([20]; 1.25 ppm): 93% OF CONTROL | AVERAGE INTESTINAL LESION SCORES ([20]; 1.5 ppm): 3.3 | INTESTINAL LESION SCORE ([20]; 1.5 ppm): 4.0 | AVERAGE INTESTINAL LESION SCORES ([20]; 1.75 ppm): 3.8 | WEIGHT GAIN, PERCENT OF CONTROL ([20]; 1.75 ppm): 91% OF CONTROL | INTESTINAL LESION SCORE ([20]; 2 ppm): 4.0 | LESION SCORE ([20]; 2 ppm): 2.3 | PERCENT REDUCTION IN OOCYST PRODUCTION ([20]; 2 ppm): 18% | AVERAGE INTESTINAL LESION SCORES ([20]; 2.5 ppm): 3.8 | WEIGHT GAIN, PERCENT OF CONTROL ([20]; 2.5 ppm): 90% OF CONTROL | AVERAGE INTESTINAL LESION SCORES ([20]; 3 ppm): 3.1 | WEIGHT GAIN, PERCENT OF CONTROL ([20]; 3 ppm): 88% OF CONTROL | AVERAGE INTESTINAL LESION SCORES ([20]; 3.5 ppm): 3.5 | WEIGHT GAIN, PERCENT OF CONTROL ([20]; 3.5 ppm): 88% OF CONTROL | AVERAGE INTESTINAL LESION SCORES ([20]; 5 ppm): 4.0 | WEIGHT GAIN, PERCENT OF CONTROL ([20]; 5 ppm): 74% OF CONTROL | AVERAGE INTESTINAL LESION SCORES ([20]; 6 ppm): 4.0 | LESION SCORE ([20]; 6 ppm): 2.7 | PERCENT REDUCTION IN OOCYST PRODUCTION ([20]; 6 ppm): 18% | LESION SCORE ([20]; 10 ppm): 2.4 | PERCENT REDUCTION IN OOCYST PRODUCTION ([20]; 10 ppm): 36% | WEIGHT GAIN, PERCENT OF CONTROL ([20]; 10 ppm): 88% OF CONTROL | AVERAGE INTESTINAL LESION SCORES ([21]; 2 ppm): 1.2 | WEIGHT GAIN, PERCENT OF CONTROL ([21]; 2 ppm): 98% OF CONTROL | AVERAGE INTESTINAL LESION SCORES ([21]; 6 ppm): 0.4 | WEIGHT GAIN, PERCENT OF CONTROL ([21]; 6 ppm): 91% OF CONTROL | AVERAGE INTESTINAL LESION SCORES ([21]; 10 ppm): 0.3 | WEIGHT GAIN, PERCENT OF CONTROL ([21]; 10 ppm): 80% OF CONTROL
